# Source: US20230348358A1, “Serotonin Receptor Modulators” (Northeastern University, priority 2020, published 2023)
# “Also recorded” adds a separate entry of the source. Where two headings read alike, the source gives them in different places.
# Columns and labels:
# [1] = test system: mice (C57BL/6J, FVB, C58/J); assay: Locomotor behavior, compound on its own; format: in vivo, mouse; settings: compound on its own or in the DOI assay; listed as (2S)-5-FPT, HCl
# C57BI/6J mice [2] = assay: d-Amphetamine (AMP)-elicited hyperlocomotion; format: in vivo, mouse; settings: 5.6 mg/kg; listed as (2S)-5-FPT, HCl
# 5HT2A receptors [3] = target: T1, 5HT2A receptors (Homo sapiens, UniProt P28223); assay: biochemical; format: binding
# T1 construct: host or cells: HEK293, transient
# T1 sequence (P28223 whole entry): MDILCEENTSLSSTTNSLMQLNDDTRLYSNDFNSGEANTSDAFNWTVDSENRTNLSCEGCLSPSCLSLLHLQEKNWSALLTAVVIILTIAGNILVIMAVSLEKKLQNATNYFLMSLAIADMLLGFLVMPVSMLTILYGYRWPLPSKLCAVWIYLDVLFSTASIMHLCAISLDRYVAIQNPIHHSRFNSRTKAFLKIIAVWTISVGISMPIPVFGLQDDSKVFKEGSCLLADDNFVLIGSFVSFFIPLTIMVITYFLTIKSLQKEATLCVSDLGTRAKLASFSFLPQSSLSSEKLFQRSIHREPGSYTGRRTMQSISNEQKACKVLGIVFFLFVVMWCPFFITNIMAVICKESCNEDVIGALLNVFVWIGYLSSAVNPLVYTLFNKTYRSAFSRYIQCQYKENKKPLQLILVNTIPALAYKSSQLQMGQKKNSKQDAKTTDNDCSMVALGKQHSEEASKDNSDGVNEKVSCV
# 5HT2A receptors [4] = target: T1, 5HT2A receptors; assay: 5-HT2A function in HEK cells over-expressing the receptor; format: cell-based
# C57BI/6J mice [5] = assay: MK-801 elicited stereotypic rotations and hyperlocomotion; format: in vivo, mouse
# Text: Regarding glutamate neurotransmission in stereotypy, the NMDA receptor antagonist, MK-801, characteristically elicits stereotypic rotations that appear to mimic monogenetic stereotypy observed in Fmr1 KO mice. Furthermore, mutations and autoantibodies of the NMDA glutamate receptor that decrease its function are causally linked to ASD, intellectual disabilities, and psychiatric symptoms in humans.
# FVB mice = assay: Marble burying; settings: mouse, in vivo
# Description: For measurement of marble burying (FIG. 7), FVB mice were placed individually, for 10 min, in clean boxes (6 in. ×10 in. ×5 in.) containing 18 clear marbles atop fresh home-bedding. Marbles buried (i.e., marbles 50% covered with bedding) were calculated after the test session.
# 50 CNS/peripheral sites = assay: NIMH PDSP / NIDA evaluation at 50 CNS/peripheral sites; format: binding
# [6] = Plasma and brain concentrations by LC-MS/MS after systemic administration; format: in vivo, mouse; settings: for concentration at 30 min / concentration at 60 min / concentration at 90 min: 3.0 mg/kg subcutaneous, mean (SEM); for concentration at 30 min: 30 min after injection; for concentration at 60 min: 60 min after injection; for concentration at 90 min: 90 min after injection
# Text: (2S)-5-FPT is neurobehaviorally active after oral administration.
# C57BI/6J mice [7] = assay: Social interactions between littermates; format: in vivo, mouse; settings: 5.6 mg/kg
# Text: After behavioral testing was complete, blind scorers categorized mice into two groups based on number of rears and initiated social interactions, and the two groups differentiated vehicle from (2S)-5-FPT-treated mice with 100% accuracy.
# D2 receptors = target: T2, D2 receptors (Homo sapiens, UniProt P14416); assay: Affinity at dopamine D2 receptors; format: binding
# T2 construct: host or cells: HEK293, transient
# T2 sequence (P14416 whole entry): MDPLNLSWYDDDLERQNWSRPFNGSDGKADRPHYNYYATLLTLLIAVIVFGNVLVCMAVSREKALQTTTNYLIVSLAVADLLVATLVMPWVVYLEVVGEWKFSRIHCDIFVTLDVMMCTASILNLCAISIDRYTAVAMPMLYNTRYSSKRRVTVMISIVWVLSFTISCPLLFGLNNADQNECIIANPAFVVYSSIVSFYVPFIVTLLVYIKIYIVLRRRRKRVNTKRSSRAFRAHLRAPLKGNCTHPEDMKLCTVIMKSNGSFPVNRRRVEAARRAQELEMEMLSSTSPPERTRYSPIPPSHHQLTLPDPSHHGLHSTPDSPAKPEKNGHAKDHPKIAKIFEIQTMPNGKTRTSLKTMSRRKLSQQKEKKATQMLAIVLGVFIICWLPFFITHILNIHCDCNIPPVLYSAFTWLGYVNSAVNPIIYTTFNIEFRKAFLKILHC
# 5HT2B receptors [8] = target: T3, 5HT2B receptors (Homo sapiens, UniProt P41595); assay: 5HT2B functional assays; format: cell-based
# T3 construct: host or cells: HEK293, transient
# T3 sequence (P41595 whole entry): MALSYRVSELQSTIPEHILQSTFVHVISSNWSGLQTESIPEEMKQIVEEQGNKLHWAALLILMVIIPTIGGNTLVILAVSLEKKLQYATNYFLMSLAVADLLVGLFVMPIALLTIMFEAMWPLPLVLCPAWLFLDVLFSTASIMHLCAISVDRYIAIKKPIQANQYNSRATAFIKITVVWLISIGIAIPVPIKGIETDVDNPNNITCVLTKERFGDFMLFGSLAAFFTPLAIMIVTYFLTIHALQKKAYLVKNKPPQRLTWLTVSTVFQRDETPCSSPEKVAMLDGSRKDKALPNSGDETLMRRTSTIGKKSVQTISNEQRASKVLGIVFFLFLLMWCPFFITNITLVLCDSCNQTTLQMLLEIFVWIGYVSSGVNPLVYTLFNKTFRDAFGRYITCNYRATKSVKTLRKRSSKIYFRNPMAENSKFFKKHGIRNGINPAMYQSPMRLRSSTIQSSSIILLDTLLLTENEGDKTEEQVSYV
# 5HT2B receptors [9] = target: T3, 5HT2B receptors; assay: Affinity at 5HT2B receptors; format: binding
# BL/6J mice = assay: Serotonin syndrome-like behavior observation; format: in vivo, mouse
# C57BL/6J mice = assay: DOI-elicited head-twitch response (HTR); format: in vivo, mouse
# Text: The 5-HT2A receptor is a predominant 5-HT receptor in the cortex, and serves important excitation modulation functions on glutamate pyramidal and GABA neurons.
# 5HT7 [10] = target: T4, 5HT7 (Homo sapiens, UniProt P34969); assay: 5HT7 function, Gs-cAMP signaling (HEK293 cells); format: cell-based; set-up: ATCC CRL-1573 (cells); settings: for Function at 5HT7: cAMP signaling, HCl
# T4 sequence (P34969 whole entry): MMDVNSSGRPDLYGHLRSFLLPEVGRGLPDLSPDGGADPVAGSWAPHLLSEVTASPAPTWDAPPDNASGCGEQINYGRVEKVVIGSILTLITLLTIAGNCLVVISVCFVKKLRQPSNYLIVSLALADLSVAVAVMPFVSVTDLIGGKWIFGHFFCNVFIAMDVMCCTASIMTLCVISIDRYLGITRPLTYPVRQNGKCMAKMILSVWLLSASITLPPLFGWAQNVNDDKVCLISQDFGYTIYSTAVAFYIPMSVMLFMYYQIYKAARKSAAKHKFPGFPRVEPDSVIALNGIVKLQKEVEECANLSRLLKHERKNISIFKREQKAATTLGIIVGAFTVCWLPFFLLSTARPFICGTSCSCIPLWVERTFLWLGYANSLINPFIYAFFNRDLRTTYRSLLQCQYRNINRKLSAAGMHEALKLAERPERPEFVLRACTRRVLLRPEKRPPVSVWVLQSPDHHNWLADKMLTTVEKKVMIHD
# Text: It is certain that the C(5) substituent impacts function. […] In FIG. 3, results of measured (S)-5-PAT scaffold yields with various function as 5HT7 ligands are compared with AS-19 and clozapine.
# 5HT2C receptors = target: T5, 5HT2C receptors (Homo sapiens, UniProt P28335); assay: 5HT2C functional assay; format: cell-based; settings: read-out: EC50 at 5HT2C receptors (agonist)
# T5 construct: host or cells: HEK293, transient
# T5 sequence (P28335 33-458): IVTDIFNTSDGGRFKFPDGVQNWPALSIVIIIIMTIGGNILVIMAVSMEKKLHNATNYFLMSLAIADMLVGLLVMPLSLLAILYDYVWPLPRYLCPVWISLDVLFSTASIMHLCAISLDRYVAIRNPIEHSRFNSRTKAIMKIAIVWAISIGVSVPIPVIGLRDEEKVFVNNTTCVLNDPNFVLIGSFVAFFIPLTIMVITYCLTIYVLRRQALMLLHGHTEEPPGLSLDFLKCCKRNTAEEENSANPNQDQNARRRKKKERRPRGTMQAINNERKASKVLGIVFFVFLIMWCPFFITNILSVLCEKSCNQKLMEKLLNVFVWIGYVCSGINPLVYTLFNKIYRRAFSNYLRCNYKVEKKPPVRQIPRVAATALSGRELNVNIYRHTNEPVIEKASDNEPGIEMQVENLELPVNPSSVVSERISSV
# 5HT7 [11] = target: T4, 5HT7; assay: Affinity (Ki) at 5HT7, HEK293 cells stably expressing 5HT7
# [12] = mouse, brain, read-out: Brain concentration
# [13] = mouse, plasma, read-out: Plasma concentration
# [14] = mouse, in vivo, listed as (2S)-5-FPT, HCl
smiles,measurement,setting,value
"CN(C)[C@H]1CCc2c(cccc2-c2ccccc2F)C1.Cl [(S)-5-FPT, (2S)-5-(2-fluorophenyl)-N,N-dimethyl-1,2,3,4-tetrahydronaphthalen-2-amine HCl]",Locomotor behavior,[1],did not alter locomotion; also recorded: without altering locomotor behavior on its own
same,Hyperlocomotion caused by AMP,C57BI/6J mice [2],did not reduce hyperlocomotion caused by AMP; also recorded: did not significantly decrease hyperlocomotion elicited by amphetamine
same,Ki,5HT2A receptors [3],~900 nM
same,Function at 5-HT2A receptors,5HT2A receptors [4],weak partial agonist activity
same,Hyperlocomotion caused by MK-801,C57BI/6J mice [5]; 5.6 mg/kg,significantly decreased hyperlocomotion
same,MK-801 elicited stereotypical rotations,C57BI/6J mice [5]; 5.6 mg/kg,significantly reduced stereotypical rotations
same,"Stereotypic rotational behavior, compound alone",C57BI/6J mice [5]; without MK-801,neither (2S)-5-FPT nor AMP caused stereotypic rotational behavior
same,Marble burying (repetitive behavior),FVB mice,reduces or eliminates repetitive behavior in all models
same,Activity at 50 CNS/peripheral sites,50 CNS/peripheral sites,without activity at 50 CNS/peripheral sites
same,concentration at 30 min,[6]; [12],1780 ng/g
same,concentration at 60 min,[6]; [12],2160 ng/g
same,concentration at 90 min,[6]; [12],1460 ng/g
same,Blood-brain barrier penetration,"[6]; mouse, in vivo",readily crosses the blood-brain barrier
same,concentration at 30 min,[6]; [13],114 ng/mL
same,concentration at 60 min,[6]; [13],118 ng/mL
same,concentration at 90 min,[6]; [13],70 ng/mL
same,Peripheral clearance,[6]; plasma levels lower than brain,rapidly cleared in the periphery
same,Grooming,C57BI/6J mice [7],decreasing grooming
same,Number of initiated social interactions,"C57BI/6J mice [7]; listed as (2S)-5-FPT, HCl",significantly increases the number of initiated social interactions
same,Affinity at D2 receptors,D2 receptors,poor affinity
same,5HT2B functional activity,5HT2B receptors [8],devoid of 5HT2B activity up to 100 μM
same,Ki,5HT2B receptors [9],60 nM
same,Flat Body,"BL/6J mice; 5.6 mg/kg, mean (SEM) number of six one-minute sessions with the behavior (score/6)",0(0)
same,Forepaw Tread,"BL/6J mice; 5.6 mg/kg, mean (SEM) score/6",0(0)
same,Head Weave,"BL/6J mice; 5.6 mg/kg, mean (SEM) score/6",0(0)
same,Moon Walk,"BL/6J mice; 5.6 mg/kg, mean (SEM) score/6",0.3(0.2)
same,Piloerection,"BL/6J mice; 5.6 mg/kg, mean (SEM) score/6",0(0)
same,Straub Tail,"BL/6J mice; 5.6 mg/kg, mean (SEM) score/6",0(0)
same,Tremor,"BL/6J mice; 5.6 mg/kg, mean (SEM) score/6",0(0)
same,Serotonin syndrome,BL/6J mice; [14],did not result in symptoms of serotonin syndrome; also recorded: does not produce serotonin syndrome-like symptoms
same,DOI HTR at 3 hours post-administration,"C57BL/6J mice; 5.6 mg/kg, 3 hours post-administration",did not block the DOI HTR
same,Time for which attenuation of the DOI HTR remained significant,"C57BL/6J mice; 5.6 mg/kg, post-administration",up to 2 hours
same,DOI-elicited HTR,C57BL/6J mice; [14],dose-dependently attenuated the DOI-elicited HTR; also recorded: significantly attenuated
same,Oral activity,C57BL/6J mice; oral administration,orally active
same,EC50,5HT7 [10],34 nM
same,"EMAX vs AS-19, 5-HT7 Gs-cAMP signaling",5HT7 [10],33%
same,Function at 5HT7,5HT7 [10],Partial agonist
same,Function at 5HT7,5HT7 [10]; listed as (2S)—S-FPT,partial agonist
same,EC50,5HT2C receptors,230 nM
same,5-HT7 affinity of (S)-enantiomer over (R)-enantiomer,5HT7 [11],about 80 times
same,Ki,5HT7 [11]; Affinity Ki ± SEM at 5HT7,5 nM
same,Ki,"5HT7 [11]; read-out: Affinity Ki ± SEM at 5HT7, HCl",5.3 ± 2 nM
